In one assay the target is CXCR3 (Homo sapiens (Human), UniProt P49682). Description: Receptor internalization assay. The assay is classed as cell-based. Particulars: human whole blood; final CXCL10 concentration 9 nM; 30 min 37° C.; CXCR3 cell surface expression on CD3 positive cells, flow cytometer; read-out: Internalization IC50. The procedure:
B): Receptor Internalization Assay:
Stock solutions of test compounds are made up at a concentration of 10 mM in DMSO, and serially diluted in PBS containing 0.5% BSA to concentrations required for inhibition dose response curves. Diluted compounds are then mixed with an equal volume of CXCL10 (Peprotech) diluted in PBS. Anticoagulated venous human whole blood is added to the mixture, which is then incubated in a CO2 incubator at 37° C. to allow for ligand mediated receptor internalization (final CXCL10 concentration is 9 nM). After 30′, the blood is mixed with fluorescently labeled CXCR3 and CD3 specific antibodies (Becton Dickinson) and incubated on ice for 10 minutes. Samples are then mixed with BD FACS Lysing Solution (Becton Dickinson) in order to eliminate red blood cells. After washing the cells with PBS containing 0.5% BSA, the samples are then analyzed in a flow cytometer (FACS Canto II, Becton Dickinson). For data analysis using FACSDiva software (Becton Dickinson), the mean fluorescence corresponding to CXCR3 cell surface expression was determined on CD3 positive cells. The program GraphPad Prism is used to fit the data to a single site dose response curve and to calculate IC50 values.
On the technique in general: In flow cytometry, cells or beads pass a laser one at a time.

Another assay deals with human CXCR3A (Homo sapiens (Human), UniProt P49682). Description: FLIPR assay. The conditions noted are these: CHO-K1 cells expressing the human CXCR3A coupled to Galpha(16); CXCL10 agonist 20 nM; Fluo-4-AM fluorescence; mean values if determined several times. The format is cell-based. The procedure, abridged: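 CHO-K1 cells expressing CXCR3A coupled to Gα16 were loaded with Fluo-4-AM for 1 h in Hepes-buffered HBSS, pH 7.4, with 5 mM probenecid. Compound dilutions were added on the FLIPR, followed by CXCL10 (added as a 20 nM solution). Baseline-subtracted peak fluorescence was fitted to a single-site curve for IC50.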

Structures are written as SMILES.

CXCR3, sequence (P49682 whole entry): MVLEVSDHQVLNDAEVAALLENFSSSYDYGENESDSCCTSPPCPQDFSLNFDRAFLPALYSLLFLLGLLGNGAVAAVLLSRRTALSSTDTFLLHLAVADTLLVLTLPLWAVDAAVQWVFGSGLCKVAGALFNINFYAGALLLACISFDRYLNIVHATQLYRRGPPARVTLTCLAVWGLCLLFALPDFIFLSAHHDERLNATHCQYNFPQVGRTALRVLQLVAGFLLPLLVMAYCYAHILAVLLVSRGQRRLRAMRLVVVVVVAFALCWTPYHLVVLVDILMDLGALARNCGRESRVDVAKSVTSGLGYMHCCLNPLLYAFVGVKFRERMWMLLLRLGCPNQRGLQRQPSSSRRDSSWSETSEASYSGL
human CXCR3A, sequence (P49682 whole entry): as above

One may read the IC50 as the concentration that inhibits the measured activity by half. As to `COc1cccc2nc(-c3ncsc3N3CCN(C(=O)Cn4c(=O)n(C)c5ccccc54)CC3)[nH]c12` [Example 30, 1-(2-{4-[4-(7-Methoxy-1H-benzoimidazol-2-yl)-thiazol-5-yl]-piperazin-1-yl}-2-oxo-ethyl)-3-methyl-1,3-dihydro-benzoimidazol-2-one], the concentration for half-maximal inhibition (IC50) on CXCR3 is 0.566 µM; on human CXCR3A, 0.002 µM.

In the case of `Cc1ccc2[nH]c(-c3ncsc3N3CCN(C(=O)Cn4c(=O)n(C)c5ccccc54)CC3)nc2c1` [Example 31, 1-Methyl-3-(2-{4-[4-(5-methyl-1H-benzoimidazol-2-yl)-thiazol-5-yl]-piperazin-1-yl}-2-oxo-ethyl)-1,3-dihydro-benzoimidazol-2-one], the concentration for half-maximal inhibition (IC50) at CXCR3 was found to be 0.54 µM; on human CXCR3A, 0.002 µM.

Turning to `Cn1c(=O)n(CC(=O)N2CCN(c3scnc3-c3nc4cc(C(F)(F)F)ccc4[nH]3)CC2)c2ccccc21` [Example 32, 1-Methyl-3-(2-oxo-2-{4-[4-(5-trifluoromethyl-1H-benzoimidazol-2-yl)-thiazol-5-yl]-piperazin-1-yl}-ethyl)-1,3-dihydro-benzoimidazol-2-one], the half-maximal inhibitory concentration (IC50) amounted to 0.633 µM at CXCR3 and 0.002 µM at human CXCR3A.

For `Cn1c(=O)n(CC(=O)N2CCN(c3scnc3-c3nc4cc(Cl)c(Cl)cc4[nH]3)CC2)c2ccccc21` [Example 35, 1-(2-{4-[4-(5,6-Dichloro-1H-benzoimidazol-2-yl)-thiazol-5-yl]-piperazin-1-yl}-2-oxo-ethyl)-3-methyl-1,3-dihydro-benzoimidazol-2-one], the IC50 on CXCR3 came out at 1.51 µM; at human CXCR3A, 0.003 µM.

`Cc1c(Cl)ccc2nc(-c3ncsc3N3CCN(C(=O)Cn4c(=O)n(C)c5ccccc54)CC3)[nH]c12` [Example 37, 1-(2-{4-[4-(6-Chloro-7-methyl-1H-benzoimidazol-2-yl)-thiazol-5-yl]-piperazin-1-yl}-2-oxo-ethyl)-3-methyl-1,3-dihydro-benzoimidazol-2-one]: the figures for the IC50 at CXCR3 and at human CXCR3A were 1.49 µM and 0.004 µM, respectively.

For `O=C(Cn1ccc2cccnc21)N1CCN(c2sc(Br)nc2-c2nc3ccccc3[nH]2)CC1` [Example 38, 1-{4-[4-(1H-Benzoimidazol-2-yl)-2-bromo-thiazol-5-yl]-piperazin-1-yl}-2-pyrrolo[2,3-b]pyridin-1-yl-ethanone], the 50% inhibitory concentration (IC50) on CXCR3 worked out at 1.58 µM; at human CXCR3A, 0.003 µM.

Consider `CCc1nc(-c2nc3ccccc3[nH]2)c(N2CCN(C(=O)Cn3ccc4cccnc43)CC2)s1` [Example 39, 1-{4-[4-(1H-Benzoimidazol-2-yl)-2-ethyl-thiazol-5-yl]-piperazin-1-yl}-2-pyrrolo[2,3-b]pyridin-1-yl-ethanone], for which the IC50 stood at 5.88 µM at CXCR3 and 0.015 µM at human CXCR3A.

For `O=C(Cn1ccc2cccnc21)N1CCCN(c2scnc2-c2nc3ccccc3[nH]2)CC1` [Example 44, 1-{4-[4-(1H-Benzoimidazol-2-yl)-thiazol-5-yl]-[1,4]diazepan-1-yl}-2-pyrrolo[2,3-b]pyridin-1-yl-ethanone], the IC50 at CXCR3 was determined as 3.9 µM; on human CXCR3A, 0.003 µM.

With `CC[C@@H]1CN(c2scnc2-c2nc3ccccc3[nH]2)CCN1C(=O)Cn1cnc2cccnc21` [Example 49, 1-{(R)-4-[4-(1H-Benzoimidazol-2-yl)-thiazol-5-yl]-2-ethyl-piperazin-1-yl}-2-imidazo[4,5-b]pyridin-3-yl-ethanone], the results for the IC50 on CXCR3 and on human CXCR3A were 0.851 µM and 0.004 µM, respectively.

On to `C[C@@H]1CN(c2sc(C(F)(F)F)nc2-c2nc3ccccc3[nH]2)CCN1C(=O)Cn1cnc2cccnc21` [Example 51, 1-{(R)-4-[4-(1H-Benzoimidazol-2-yl)-2-trifluoromethyl-thiazol-5-yl]-2-methyl-piperazin-1-yl}-2-imidazo[4,5-b]pyridin-3-yl-ethanone], for which the IC50 on CXCR3 was 0.066 µM; at human CXCR3A, 0.001 µM.

With `O=C(Cn1ccc2cc(F)ccc21)N1CCN(c2scnc2-c2nc3ccccc3[nH]2)CC1` [Example 55, 1-{4-[4-(1 H-Benzoimidazol-2-yl)-thiazol-5-yl]-piperazin-1-yl}-2-(5-fluoro-indol-1-yl)-ethanone], the results for the half-maximal inhibitory concentration (IC50) at CXCR3 and on human CXCR3A were 1.66 µM and 0.004 µM, respectively.

As for `Cc1cccc2ccn(CC(=O)N3CCN(c4scnc4-c4nc5ccccc5[nH]4)CC3)c12` [Example 57, 1-{4-[4-(1H-Benzoimidazol-2-yl)-thiazol-5-yl]-piperazin-1-yl}-2-(7-methyl-indol-1-yl)-ethanone], the figures for the IC50 at CXCR3 and on human CXCR3A were 4.13 µM and 0.002 µM, respectively.

Turning to `O=C(Cn1ccc2c(Cl)cccc21)N1CCN(c2scnc2-c2nc3ccccc3[nH]2)CC1` [Example 60, 1-{4-[4-(1H-Benzoimidazol-2-yl)-thiazol-5-yl]-piperazin-1-yl}-2-(4-chloro-indol-1-yl)-ethanone], the figures for the IC50 on CXCR3 and on human CXCR3A were 1.4 µM and 0.008 µM, respectively.

For the molecule `N#Cc1cccc2ccn(CC(=O)N3CCN(c4scnc4-c4nc5ccccc5[nH]4)CC3)c12` [Example 61, 1-(2-{4-[4-(1H-Benzoimidazol-2-yl)-thiazol-5-yl]-piperazin-1-yl}-2-oxo-ethyl)-1H-indole-7-carbonitrile], the concentration for half-maximal inhibition (IC50) on CXCR3 stood at 0.458 µM; at human CXCR3A it was 0.002 µM.

As for `O=C(Cn1ccc2ccc(Cl)nc21)N1CCN(c2scnc2-c2nc3ccccc3[nH]2)CC1` [Example 65, 1-{4-[4-(1H-Benzoimidazol-2-yl)-thiazol-5-yl]-piperazin-1-yl}-2-(6-chloro-pyrrolo[2,3-b]pyridin-1-yl)-ethanone], the IC50 at CXCR3 is 0.816 µM; on human CXCR3A it was 0.003 µM.

Regarding `O=C(CN1C(=O)Cc2ccccc21)N1CCN(c2scnc2-c2nc3ccccc3[nH]2)CC1` [Example 68, 1-(2-{4-[4-(1H-Benzoimidazol-2-yl)-thiazol-5-yl]-piperazin-1-yl}-2-oxo-ethyl)-1,3-dihydro-indol-2-one], the IC50 turned out to be 0.749 µM at CXCR3 and 0.008 µM on human CXCR3A.

As for `O=C(Cn1c(=O)[nH]c2cccnc21)N1CCN(c2scnc2-c2nc3ccccc3[nH]2)CC1` [Example 71, 3-(2-{4-[4-(1H-Benzoimidazol-2-yl)-thiazol-5-yl]-piperazin-1-yl}-2-oxo-ethyl)-1,3-dihydro-imidazo[4,5-b]pyridin-2-one], the concentration for half-maximal inhibition (IC50) on CXCR3 stood at 0.639 µM; on human CXCR3A it was 0.006 µM.

As to `C[C@@H]1CN(c2scnc2-c2nc3cc(Cl)ccc3[nH]2)C[C@H](C)N1C(=O)Cn1cnc2cccnc21` [Example 72, 1-{(2S,6R)-4-[4-(5-Chloro-1H-benzoimidazol-2-yl)-thiazol-5-yl]-2,6-dimethyl-piperazin-1-yl}-2-imidazo[4,5-b]pyridin-3-yl-ethanone], the IC50 on CXCR3 was 0.231 µM; on human CXCR3A, 0.001 µM.

For `C[C@@H]1CN(c2sc(C3CC3)nc2-c2nc3ccccc3[nH]2)CCN1C(=O)Cn1cnc2cccnc21` [Example 73, 1-{(R)-4-[4-(1H-Benzoimidazol-2-yl)-2-cyclopropyl-thiazol-5-yl]-2-methyl-piperazin-1-yl}-2-imidazo[4,5-b]pyridin-3-yl-ethanone], the IC50 at CXCR3 was 0.8 µM; on human CXCR3A it was 0.006 µM.

On to `Cn1c(=O)n(CC(=O)N2CCN(c3scnc3-c3nc4ccc(OC(F)(F)F)cc4[nH]3)CC2)c2ccccc21` [Example 74, 1-Methyl-3-(2-oxo-2-{4-[4-(6-trifluoromethoxy-1H-benzoimidazol-2-yl)-thiazol-5-yl]-piperazin-1-yl}-ethyl)-1,3-dihydro-benzoimidazol-2-one], for which the values for the IC50 on CXCR3 and at human CXCR3A were 1.04 µM and 0.002 µM, respectively.

As to `Cn1c(=O)n(CC(=O)N2CCN(c3scnc3-c3nc4cc(C#N)ccc4[nH]3)CC2)c2ccccc21` [Example 75, 2-(5-{4-[2-(3-Methyl-2-oxo-2,3-dihydro-benzoimidazol-1-yl)-acetyl]-piperazin-1-yl}-thiazol-4-yl)-1H-benzoimidazole-5-carbonitrile], the IC50 on CXCR3 amounted to 0.721 µM; on human CXCR3A it was 0.015 µM.

Turning to `O=C(CN1C(=O)CCc2ccccc21)N1CCN(c2scnc2-c2nc3ccccc3[nH]2)CC1` [Example 77, 1-(2-{4-[4-(1H-Benzoimidazol-2-yl)-thiazol-5-yl]-piperazin-1-yl}-2-oxo-ethyl)-3,4-dihydro-1H-quinolin-2-one], the IC50 turned out to be 1.44 µM at CXCR3 and 0.006 µM on human CXCR3A.

As for `O=C(CN1C(=O)COc2ccccc21)N1CCN(c2scnc2-c2nc3ccccc3[nH]2)CC1` [Example 78, 4-(2-{4-[4-(1H-Benzoimidazol-2-yl)-thiazol-5-yl]-piperazin-1-yl}-2-oxo-ethyl)-4H-benzo[1,4]oxazin-3-one], the figures for the half-inhibitory concentration (IC50) on CXCR3 and on human CXCR3A were 3.12 µM and 0.011 µM, respectively.

As to `O=C(Cn1cnc2cccnc21)N1[C@@H]2CC[C@H]1CN(c1scnc1-c1nc3ccccc3[nH]1)C2` [Example 79, rac-1-{(1S*,5R*)-3-[4-(1H-Benzoimidazol-2-yl)-thiazol-5-yl]-3,8-diaza-bicyclo[3.2.1]oct-8-yl}-2-imidazo[4,5-b]pyridin-3-yl-ethanone], the figures for the concentration for half-maximal inhibition (IC50) on CXCR3 and on human CXCR3A were 0.828 µM and 0.006 µM, respectively.

Values taken from patent US9266876B2 (Actelion Pharmaceuticals Ltd., priority 2012, dated 2016).
